Assay results from US9156845B2, “4-(substituted amino)-7H-pyrrolo[2,3-d] pyrimidines as LRRK2 inhibitors” (Pfizer Inc., priority 2012, dated 2015).
Read-outs that look alike come from different tables or passages of the source.

Assays:
Assay in all cases: ActivX kinase probe assay (human PBMC)
Assay type in all cases: binding
RSK1 domain2 = RSK1 domain2 (Homo sapiens (Human), UniProt Q15418); settings: RSK1 domain2, read-out: percent inhibition
MAP2K4 = MAP2K4 (Homo sapiens (Human), UniProt P45985); settings: MAP2K4, read-out: percent inhibition
ILK = ILK (Homo sapiens (Human), UniProt Q13418); settings: ILK, read-out: percent inhibition
MLKL = MLKL (Homo sapiens (Human), UniProt Q8NB16); settings: MLKL, read-out: percent inhibition
AMPKa1, AMPKa2 = tested on: AMPKa1, AMPKa2
NEK7 = NEK7 (Homo sapiens (Human), UniProt Q8TDX7); settings: NEK7, read-out: percent inhibition
GCN2 = GCN2 (Homo sapiens (Human), UniProt Q9P2K8); settings: GCN2, read-out: percent inhibition
ZC2/TNIK = ZC2/TNIK (Homo sapiens (Human), UniProt Q9UKE5); settings: ZC2/TNIK, read-out: percent inhibition
BRAF = BRAF (Homo sapiens (Human), UniProt P15056); settings: BRAF, read-out: percent inhibition
MAP2K6 = MAP2K6 (Homo sapiens (Human), UniProt P52564); settings: MAP2K6, read-out: percent inhibition
IRAK3 = IRAK3 (Homo sapiens (Human), UniProt Q9Y616); settings: IRAK3, read-out: percent inhibition
MAP3K5 = MAP3K5 (Homo sapiens (Human), UniProt Q99683); settings: MAP3K5, read-out: percent inhibition
JAK3 domain2 = JAK3 domain2 (Homo sapiens (Human), UniProt P52333); settings: JAK3 domain2, read-out: percent inhibition
SGK3 = SGK3 (Homo sapiens (Human), UniProt Q96BR1); settings: SGK3, read-out: percent inhibition
SYK = SYK (Homo sapiens (Human), UniProt P43405); settings: SYK, read-out: percent inhibition
PRPK = PRPK (Homo sapiens (Human), UniProt Q96S44); settings: read-out: percent inhibition
Procedure: Certain of the compounds of the present invention were assessed for kinase selectivity using a commercially available ActiveX targeted kinase probe in which the tissue employed was human peripheral blood mononuclear cells (PBMC). The test compounds were provided to ActivX Biosciences, Inc., 11025 North Torrey Pines Road, Suite 120; LaJolla, Calif., USA 92037. The compounds were run in the ActivX proprietary kinase assay and results were obtained at compound test concentrations of 1 μM (columns 2, 4 and 6) and 0.1 μM (columns 3, 5 and 7). The results as percent inhibition obtained for the compounds of Examples 1, 4 and 217 are provided below in Table 3.

MAP3K1 = MAP3K1 (Homo sapiens (Human), UniProt Q13233); settings: MAP3K1, read-out: percent inhibition
FYN = FYN (Homo sapiens (Human), UniProt P06241); settings: FYN, read-out: percent inhibition
IRAK4 = IRAK4 (Homo sapiens (Human), UniProt Q9NWZ3); settings: IRAK4, read-out: percent inhibition
STLK5 = STLK5 (Homo sapiens (Human), UniProt Q7RTN6); settings: STLK5, read-out: percent inhibition
LOK = LOK (Homo sapiens (Human), UniProt O94804); settings: LOK, read-out: percent inhibition
JAK1 = JAK1 (Homo sapiens (Human), UniProt P23458); settings: JAK1, read-out: percent inhibition
AMPKa1 = AMPKa1 (Homo sapiens (Human), UniProt Q13131); settings: AMPKa1, read-out: percent inhibition
PIP4K2C = PIP4K2C (Homo sapiens (Human), UniProt Q8TBX8); settings: read-out: percent inhibition
p38d, p38g = tested on: p38d, p38g
CaMK1a = CaMK1a (Homo sapiens (Human), UniProt Q14012); settings: CaMK1a, read-out: percent inhibition
CaMK2d = CaMK2d (Homo sapiens (Human), UniProt Q13557); settings: CaMK2d, read-out: percent inhibition
FRAP = FRAP (Homo sapiens (Human), UniProt P42345); settings: FRAP, read-out: percent inhibition
AKT1 = AKT1 (Homo sapiens (Human), UniProt P31749); settings: AKT1, read-out: percent inhibition
LATS2 = LATS2 (Homo sapiens (Human), UniProt Q9NRM7); settings: LATS2, read-out: percent inhibition
MAP2K1, MAP2K2 = tested on: MAP2K1, MAP2K2

Sequence of PIP4K2C (Q8TBX8 whole entry): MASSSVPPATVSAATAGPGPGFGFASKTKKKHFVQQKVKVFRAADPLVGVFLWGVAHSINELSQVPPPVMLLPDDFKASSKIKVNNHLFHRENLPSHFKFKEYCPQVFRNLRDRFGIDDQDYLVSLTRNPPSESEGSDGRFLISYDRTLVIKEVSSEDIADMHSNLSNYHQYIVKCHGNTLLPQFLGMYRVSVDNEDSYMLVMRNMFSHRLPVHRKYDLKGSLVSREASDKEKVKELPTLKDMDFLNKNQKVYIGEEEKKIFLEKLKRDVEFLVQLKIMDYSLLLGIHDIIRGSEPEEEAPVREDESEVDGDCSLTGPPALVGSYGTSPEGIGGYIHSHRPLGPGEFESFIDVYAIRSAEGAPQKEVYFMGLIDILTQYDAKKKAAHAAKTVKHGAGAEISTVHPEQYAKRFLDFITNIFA
Sequence of AKT1 (P31749 whole entry): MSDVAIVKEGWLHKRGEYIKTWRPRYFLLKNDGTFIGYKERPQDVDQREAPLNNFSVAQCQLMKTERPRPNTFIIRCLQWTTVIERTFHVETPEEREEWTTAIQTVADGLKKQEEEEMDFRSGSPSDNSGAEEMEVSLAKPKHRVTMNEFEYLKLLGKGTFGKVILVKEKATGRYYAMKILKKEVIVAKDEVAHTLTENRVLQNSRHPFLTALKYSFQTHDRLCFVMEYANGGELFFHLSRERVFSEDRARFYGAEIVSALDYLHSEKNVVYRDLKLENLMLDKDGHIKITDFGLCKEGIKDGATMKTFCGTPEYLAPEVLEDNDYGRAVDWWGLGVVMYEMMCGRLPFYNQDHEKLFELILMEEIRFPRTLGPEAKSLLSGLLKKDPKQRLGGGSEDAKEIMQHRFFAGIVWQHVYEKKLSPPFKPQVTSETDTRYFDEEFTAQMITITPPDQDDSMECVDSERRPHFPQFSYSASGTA
Sequence of LATS2 (Q9NRM7 whole entry): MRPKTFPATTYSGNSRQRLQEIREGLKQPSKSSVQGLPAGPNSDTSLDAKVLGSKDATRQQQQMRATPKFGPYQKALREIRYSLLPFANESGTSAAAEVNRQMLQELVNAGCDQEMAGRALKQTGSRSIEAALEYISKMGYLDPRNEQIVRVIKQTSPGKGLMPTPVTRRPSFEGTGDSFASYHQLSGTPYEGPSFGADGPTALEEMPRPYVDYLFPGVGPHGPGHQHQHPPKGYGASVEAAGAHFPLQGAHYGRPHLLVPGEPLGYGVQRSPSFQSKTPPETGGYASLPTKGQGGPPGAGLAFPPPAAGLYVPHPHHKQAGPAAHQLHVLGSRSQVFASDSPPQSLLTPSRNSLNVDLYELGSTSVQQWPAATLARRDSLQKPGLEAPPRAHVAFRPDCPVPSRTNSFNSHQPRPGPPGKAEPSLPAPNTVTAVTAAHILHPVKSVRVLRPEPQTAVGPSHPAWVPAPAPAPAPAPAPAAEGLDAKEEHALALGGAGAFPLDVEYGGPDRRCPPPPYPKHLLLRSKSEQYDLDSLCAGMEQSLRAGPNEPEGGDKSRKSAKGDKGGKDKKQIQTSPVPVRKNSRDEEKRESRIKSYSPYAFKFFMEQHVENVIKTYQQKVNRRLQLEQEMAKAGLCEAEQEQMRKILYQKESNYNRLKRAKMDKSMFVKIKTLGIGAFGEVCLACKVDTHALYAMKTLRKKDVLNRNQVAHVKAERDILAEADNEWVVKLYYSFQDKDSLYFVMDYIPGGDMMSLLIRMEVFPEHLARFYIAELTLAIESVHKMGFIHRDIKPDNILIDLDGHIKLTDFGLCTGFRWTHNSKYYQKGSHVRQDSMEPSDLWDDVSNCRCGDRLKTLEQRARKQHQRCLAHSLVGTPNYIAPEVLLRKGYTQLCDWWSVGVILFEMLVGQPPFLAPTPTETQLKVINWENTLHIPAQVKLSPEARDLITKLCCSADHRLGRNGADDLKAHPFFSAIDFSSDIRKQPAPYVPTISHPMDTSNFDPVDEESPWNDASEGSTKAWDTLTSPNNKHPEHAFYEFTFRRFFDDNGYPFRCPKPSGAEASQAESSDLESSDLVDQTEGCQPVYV
Sequence of MAP2K6 (P52564 whole entry): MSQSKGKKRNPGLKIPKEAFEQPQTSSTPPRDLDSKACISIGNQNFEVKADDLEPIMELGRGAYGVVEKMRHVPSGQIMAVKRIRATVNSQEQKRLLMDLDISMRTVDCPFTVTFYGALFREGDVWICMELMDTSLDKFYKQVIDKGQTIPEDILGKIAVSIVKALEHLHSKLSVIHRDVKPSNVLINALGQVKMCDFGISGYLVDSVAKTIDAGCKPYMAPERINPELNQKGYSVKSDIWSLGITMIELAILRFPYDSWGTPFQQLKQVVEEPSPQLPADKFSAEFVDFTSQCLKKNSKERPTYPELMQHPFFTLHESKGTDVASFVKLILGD
Sequence of MLKL (Q8NB16 whole entry): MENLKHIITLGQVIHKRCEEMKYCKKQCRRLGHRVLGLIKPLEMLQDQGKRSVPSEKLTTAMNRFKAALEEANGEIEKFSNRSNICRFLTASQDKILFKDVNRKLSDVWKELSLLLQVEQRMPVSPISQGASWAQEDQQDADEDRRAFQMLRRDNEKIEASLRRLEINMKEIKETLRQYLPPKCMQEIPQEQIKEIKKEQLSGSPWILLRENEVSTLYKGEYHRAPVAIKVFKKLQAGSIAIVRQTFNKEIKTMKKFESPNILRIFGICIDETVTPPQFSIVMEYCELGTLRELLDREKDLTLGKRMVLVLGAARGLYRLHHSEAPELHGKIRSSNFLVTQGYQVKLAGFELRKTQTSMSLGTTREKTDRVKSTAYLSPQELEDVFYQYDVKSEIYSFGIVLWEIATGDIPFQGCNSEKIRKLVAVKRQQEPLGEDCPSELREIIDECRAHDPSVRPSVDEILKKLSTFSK
Sequence of MAP3K1 (Q13233 whole entry): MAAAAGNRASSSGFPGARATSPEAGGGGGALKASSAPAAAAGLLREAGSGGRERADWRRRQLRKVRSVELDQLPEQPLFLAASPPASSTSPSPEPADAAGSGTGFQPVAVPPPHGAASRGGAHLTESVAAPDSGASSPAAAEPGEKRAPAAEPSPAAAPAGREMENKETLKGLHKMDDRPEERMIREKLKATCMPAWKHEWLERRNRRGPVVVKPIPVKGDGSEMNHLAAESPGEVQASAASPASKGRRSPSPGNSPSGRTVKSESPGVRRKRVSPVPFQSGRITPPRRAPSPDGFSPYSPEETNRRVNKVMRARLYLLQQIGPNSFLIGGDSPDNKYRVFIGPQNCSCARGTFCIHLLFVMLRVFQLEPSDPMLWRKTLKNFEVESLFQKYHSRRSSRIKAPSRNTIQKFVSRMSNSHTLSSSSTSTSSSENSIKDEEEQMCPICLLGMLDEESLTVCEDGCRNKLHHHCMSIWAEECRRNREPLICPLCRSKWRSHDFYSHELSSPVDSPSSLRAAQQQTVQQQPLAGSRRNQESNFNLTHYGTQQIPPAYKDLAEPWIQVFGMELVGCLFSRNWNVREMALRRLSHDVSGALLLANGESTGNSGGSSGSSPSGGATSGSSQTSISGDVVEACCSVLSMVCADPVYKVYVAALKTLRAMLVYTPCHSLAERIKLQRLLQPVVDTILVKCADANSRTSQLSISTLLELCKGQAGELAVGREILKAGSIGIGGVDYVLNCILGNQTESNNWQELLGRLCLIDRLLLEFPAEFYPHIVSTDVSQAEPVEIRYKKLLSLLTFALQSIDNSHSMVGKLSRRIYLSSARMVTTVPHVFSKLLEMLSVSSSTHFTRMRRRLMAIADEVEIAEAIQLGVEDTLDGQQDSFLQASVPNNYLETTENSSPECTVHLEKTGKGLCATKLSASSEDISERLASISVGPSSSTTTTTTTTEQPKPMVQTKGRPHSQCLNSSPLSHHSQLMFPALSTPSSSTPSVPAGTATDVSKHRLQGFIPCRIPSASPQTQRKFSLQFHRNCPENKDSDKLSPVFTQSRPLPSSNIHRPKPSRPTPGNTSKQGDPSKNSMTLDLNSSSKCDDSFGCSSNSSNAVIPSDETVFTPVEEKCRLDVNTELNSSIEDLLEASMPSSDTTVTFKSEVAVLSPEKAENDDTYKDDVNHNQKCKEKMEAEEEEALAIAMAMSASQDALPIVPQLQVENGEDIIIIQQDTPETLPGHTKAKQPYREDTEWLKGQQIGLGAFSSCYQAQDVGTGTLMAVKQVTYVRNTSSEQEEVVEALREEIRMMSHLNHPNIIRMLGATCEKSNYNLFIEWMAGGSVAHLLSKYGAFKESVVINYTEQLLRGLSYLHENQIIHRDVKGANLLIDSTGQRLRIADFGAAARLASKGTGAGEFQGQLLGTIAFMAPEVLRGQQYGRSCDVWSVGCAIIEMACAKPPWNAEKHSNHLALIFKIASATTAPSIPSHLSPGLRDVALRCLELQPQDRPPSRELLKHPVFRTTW
Sequence of CaMK2d (Q13557 whole entry): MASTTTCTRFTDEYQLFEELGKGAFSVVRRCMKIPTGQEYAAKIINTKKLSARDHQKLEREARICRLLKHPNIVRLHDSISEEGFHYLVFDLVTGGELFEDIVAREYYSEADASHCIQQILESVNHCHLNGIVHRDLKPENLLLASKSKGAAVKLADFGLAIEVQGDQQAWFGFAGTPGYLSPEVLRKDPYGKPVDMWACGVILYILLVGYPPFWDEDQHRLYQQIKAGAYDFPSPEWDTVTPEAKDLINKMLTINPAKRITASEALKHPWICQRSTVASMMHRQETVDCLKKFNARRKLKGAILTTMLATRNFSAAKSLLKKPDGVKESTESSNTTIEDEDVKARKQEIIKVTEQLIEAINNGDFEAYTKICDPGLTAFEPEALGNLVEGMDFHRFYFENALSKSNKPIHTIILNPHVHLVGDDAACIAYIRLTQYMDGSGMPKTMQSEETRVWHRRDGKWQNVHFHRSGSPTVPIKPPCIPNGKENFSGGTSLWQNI

Compound Cn1cc(-c2c[nH]c3ncnc(N4CCOCC4)c23)cc1C#N [Example 217, 1-methyl-4-[4-(morpholin-4-yl)-7H-pyrrolo[2,3-d]pyrimidin-5-yl]-1H-pyrrole-2-carbonitrile] has an inhibition at 0.1 µM (RSK1 domain2; 0.1 μM) of -3.4%, an inhibition at 1 µM (RSK1 domain2; 1 μM) of 5% and an inhibition at 0.1 µM (MAP2K4; 0.1 μM) of 2.3%. It also gave an inhibition at 1 µM (MAP2K4; 1 μM) of 1.6%, an inhibition at 0.1 µM (ILK; 0.1 μM) of -6.3% and an inhibition at 1 µM (ILK; 1 μM) of -3.8%. It also gave an inhibition at 0.1 µM (MLKL; 0.1 μM) of 2.5%, an inhibition at 1 µM (MLKL; 1 μM) of -3.3% and a percent inhibition (AMPKa1, AMPKa2; 0.1 μM) of 5.7%. The percent inhibition (AMPKa1, AMPKa2; 1 μM) was 16.5%, the inhibition at 0.1 µM (NEK7; 0.1 μM) was -9% and the inhibition at 1 µM (NEK7; 1 μM) was -2.3%. It also gave an inhibition at 0.1 µM (GCN2; 0.1 μM) of -7.7%, an inhibition at 1 µM (GCN2; 1 μM) of -3.1% and an inhibition at 0.1 µM (ZC2/TNIK; 0.1 μM) of -10.7%. For the same compound, the inhibition at 1 µM (ZC2/TNIK; 1 μM) was 3.9%, the inhibition at 0.1 µM (BRAF; 0.1 μM) was -8.4% and the inhibition at 1 µM (BRAF; 1 μM) was -10.4%. It also gave an inhibition at 0.1 µM (MAP2K6; 0.1 μM) of 11.3%, an inhibition at 1 µM (MAP2K6; 1 μM) of -0.1% and an inhibition at 0.1 µM (IRAK3; 0.1 μM) of 16%. The inhibition at 1 µM (IRAK3; 1 μM) was 72.4%, the inhibition at 0.1 µM (MAP3K5; 0.1 μM) was 7% and the inhibition at 1 µM (MAP3K5; 1 μM) was 44.5%. It also gave an inhibition at 0.1 µM (JAK3 domain2; 0.1 μM) of -7.8%, an inhibition at 1 µM (JAK3 domain2; 1 μM) of 4.9% and an inhibition at 0.1 µM (SGK3; 0.1 μM) of 8.5%. For the same compound, the inhibition at 1 µM (SGK3; 1 μM) was 16.9%, the inhibition at 0.1 µM (SYK; 0.1 μM) was -2% and the inhibition at 1 µM (SYK; 1 μM) was -5.1%. It also gave an inhibition at 0.1 µM (PRPK; 0.1 μM) of 2.6%, an inhibition at 1 µM (PRPK; 1 μM) of 12.5% and an inhibition at 0.1 µM (MAP3K1; 0.1 μM) of -17.3%. It also gave an inhibition at 1 µM (MAP3K1; 1 μM) of 14.8%, an inhibition at 0.1 µM (FYN; 0.1 μM) of -2.1% and an inhibition at 1 µM (FYN; 1 μM) of -6.8%. For the same compound, the inhibition at 0.1 µM (IRAK4; 0.1 μM) was 14.7%, the inhibition at 1 µM (IRAK4; 1 μM) was 34.5% and the inhibition at 0.1 µM (STLK5; 0.1 μM) was -6.9%. For the same compound, the inhibition at 1 µM (STLK5; 1 μM) was -11.5%, the inhibition at 0.1 µM (LOK; 0.1 μM) was -6.4% and the inhibition at 1 µM (LOK; 1 μM) was 56.1%. For the same compound, the inhibition at 0.1 µM (JAK1; 0.1 μM) was -3%, the inhibition at 1 µM (JAK1; 1 μM) was 11.4% and the inhibition at 0.1 µM (AMPKa1; 0.1 μM) was 27.2%. It also gave an inhibition at 1 µM (AMPKa1; 1 μM) of 48.8%, an inhibition at 0.1 µM (PIP4K2C; PIP4K2C (first line of two)) of 6.2% and an inhibition at 1 µM (PIP4K2C; PIP4K2C (first line of two)) of -11.9%. For the same compound, the inhibition at 0.1 µM (PIP4K2C; PIP4K2C (second line of two)) was -4.7%, the inhibition at 1 µM (PIP4K2C; PIP4K2C (second line of two)) was 4% and the percent inhibition (p38d, p38g; 0.1 μM) was −0.4%. For the same compound, the percent inhibition (p38d, p38g; 1 μM) was 1.5%, the inhibition at 0.1 µM (CaMK1a; 0.1 μM) was -5.4% and the inhibition at 1 µM (CaMK1a; 1 μM) was -7.1%. The inhibition at 0.1 µM (CaMK2d; 0.1 μM) was 9.8%, the inhibition at 1 µM (CaMK2d; 1 μM) was 16.1% and the inhibition at 0.1 µM (FRAP; 0.1 μM) was 0.7%. For the same compound, the inhibition at 1 µM (FRAP; 1 μM) was 0.9%, the inhibition at 0.1 µM (AKT1; 0.1 μM) was 5.5% and the inhibition at 1 µM (AKT1; 1 μM) was -3.6%. For the same compound, the inhibition at 0.1 µM (LATS2; 0.1 μM) was 5.8%, the inhibition at 1 µM (LATS2; 1 μM) was -23.7% and the percent inhibition (MAP2K1, MAP2K2; 0.1 μM) was 10.9%. For the same compound, the percent inhibition (MAP2K1, MAP2K2; 1 μM) was −2.6%.
